“And” between values parts separate entries of the source, which are not always exact repeats. Equal values may be shown once.
Experiment: solvent given as SMILES

COC(=O)c1cc(=O)n(Cc2ccccc2)c2cc(-c3ccc(OC)cc3)sc12
emission maximum (in CC#N): 477 nm
emission maximum (in ClCCl): 474 nm

O=C(c1ccccc1)c1cc2ccc1CCc1ccc(c(-c3ccc(N(c4ccccc4)c4ccccc4)cc3)c1)CC2
emission maximum (in Cc1ccccc1): 455 nm
emission maximum (in c1cc(-n2c3ccccc3c3ccccc32)cc(-n2c3ccccc3c3ccccc32)c1): 468.87 nm

CC(C)(C)NC(=O)c1ccc2ccc3cccc4ccc1c2c34
emission maximum (in ClC(Cl)Cl): 382 nm

CC(=O)Nc1ccc(C2=C/C(=C\c3ccc(C#N)cc3)C(=O)O2)cc1
emission maximum (in C1COCCO1): 521 nm

c1ccc(-c2cc(-c3ccc4ccc5cccc6ccc3c4c56)ccn2)nc1
emission maximum (in C1CCOC1): 394 nm
emission maximum (in CC#N): 410 nm
emission maximum (in CCC#N): 408 nm
emission maximum (in CCCC#N): 408 nm
emission maximum (in CCCCCC): 385 nm
emission maximum (in CCCO): 429 nm
emission maximum (in CCO): 431 nm
emission maximum (in CO): 438 nm
emission maximum (in Cc1ccccc1): 393 nm

CCC12C(=C3C(=C4c5ccc(-c6ccc(CO)cc6)cc5S(=O)(=O)C41CC)C(F)(F)C(F)(F)C3(F)F)c1ccc(-c3ccc(CO)cc3)cc1S2(=O)=O (configuration not stated)
emission maximum (in C1COCCO1): 538.57 nm

O=c1cc[nH]c(=O)[nH]1
emission maximum (in CC#N): 311 nm

CC(C)(C)c1ccc(-c2c3ccccc3c3n2[B-](F)(F)[N+]2=Cc4c5ccccc5c(-c5ccc(C(C)(C)C)cc5)n4[B-](F)(F)[N+]2=C3)cc1
emission maximum (in CC#N): 601 nm
emission maximum (in CCCCCC): 603 nm
emission maximum (in CN(C)C=O): 607 nm
emission maximum (in Cc1ccccc1): 611 nm
emission maximum (in ClCCl): 608 nm

Cc1ccc(C2=C3C=CC(C#Cc4ccccc4)=[N+]3[B-](F)(F)n3c(Cl)ccc32)cc1
emission maximum (in C1CCCCC1): 575 nm
emission maximum (in C1CCOC1): 573 nm
emission maximum (in C1COCCO1): 575 nm
emission maximum (in CCOC(C)=O): 571 nm
emission maximum (in CO): 569 nm
emission maximum (in Cc1ccccc1): 577 nm
emission maximum (in ClC(Cl)Cl): 577 nm

Cc1cccc2c1nc1c(=O)n(C)c(=O)nc-1n2C
emission maximum (in CC#N): 493 nm

CC(=O)c1ccc2ccc3cccc4ccc1c2c34
emission maximum (in C1CCOC1): 387 nm
emission maximum (in CC#N): 390 nm
emission maximum (in CCCCCC): 387 nm
emission maximum (in CCO): 436 nm
emission maximum (in CN(C)C=O): 392 nm
emission maximum (in CO): 443 nm
emission maximum (in Cc1ccccc1): 392 nm
emission maximum (in ClCCl): 396 nm

Cc1ccccc1-c1c2cccc3c(-c4ccc(C(C)(C)C)cc4)cc4c(-c5ccccc5C)c5cccc6c(-c7ccc(C(C)(C)C)cc7)cc1c(c65)c4c32
emission maximum (in ClCCl): 455 nm

C(=C\c1ccncn1)/c1ccc(-c2ccc(N(c3ccccc3)c3ccccc3)cc2)cc1
emission maximum (in C1CCOC1): 525 nm
emission maximum (in CC#N): 599 nm
emission maximum (in CCCCCCC): 445 nm
emission maximum (in CS(C)=O): 609 nm
emission maximum (in ClCCl): 563 nm

CCN(CC)c1ccc2cc(-c3nc4cc(C(=O)Nc5cccc(OC)c5)ccc4o3)c(=O)oc2c1
emission maximum (in ClCCl): 494 nm

CCC1(CC)c2cc(/C=C/c3cc(C#N)c(/C=C/c4ccc5c(c4)C(CC)(CC)c4cc(N6c7ccccc7Sc7ccccc76)ccc4-5)cc3C#N)ccc2-c2ccc(N3c4ccccc4Sc4ccccc43)cc21
emission maximum (in C1CCOC1): 514 nm
emission maximum (in CC#N): 610 nm
emission maximum (in CCCCCC): 518 nm
emission maximum (in Cc1ccccc1): 547 nm
emission maximum (in ClCCl): 520 nm

c1ccc(C2=C(c3ccccn3)[Si](c3ccccc3)(c3ccccc3)c3ccccc32)cc1
emission maximum (in ClCCl): 406 nm

Nc1nc(/C=C/c2ccc(N(c3ccccc3)c3ccccc3)cc2)cc(/C=C/c2ccc(N(c3ccccc3)c3ccccc3)cc2)n1
emission maximum (in Cc1ccccc1): 467 nm
emission maximum (in ClC(Cl)Cl): 526 nm

S=P1(c2ccccc2)c2cccc3ccc4ccc1n4c23 (configuration not stated)
emission maximum (in ClCCl): 490 nm

COc1ccc(/C=C2\OC(=O)c3ccccc32)cc1
emission maximum (in CC#N): 456.2 nm and 446 nm
emission maximum (in CC(C)=O): 452.49 nm
emission maximum (in CC(C)CO): 451.88 nm
emission maximum (in CC(C)O): 459.77 nm
emission maximum (in CCCO): 460.83 nm
emission maximum (in CCO): 459.35 nm
emission maximum (in CCOC(C)=O): 438.6 nm
emission maximum (in CCOCC): 434.03 nm
emission maximum (in CO): 459.35 nm

CN(C)c1ccc(C#Cc2ccc(-c3cc(N(C)C)c4ccccc4c3)cc2)cc1
emission maximum (in CC#N): 497.02 nm
emission maximum (in CCO): 472.33 nm
emission maximum (in ClCCl): 457 nm

c1ccc(N2N=C(c3c4ccccc4cc4ccccc34)CC2c2ccc3ccc4cccc5ccc2c3c45)cc1 (configuration not stated)
emission maximum (in ClCCl): 509 nm

CCCCN(CCCC)c1ccc(C#Cc2cc(C#Cc3c(F)c(F)c(F)c(F)c3F)c(C#Cc3ccc(N(CCCC)CCCC)cc3)cc2C#Cc2c(F)c(F)c(F)c(F)c2F)cc1
emission maximum (in ClCCl): 563 nm
emission maximum (in c1ccccc1): 534 nm

CC1=C(C)c2cccc3c2c(cc2nc4ccccc4nc23)O1
emission maximum (in ClCCl): 563 nm

Cc1cc(C)c(B2c3cc(C)ccc3N3c4ccc(C)cc4B(c4c(C)cc(C)cc4C)c4cc(C)cc2c43)c(C)c1
emission maximum (in ClCCl): 484 nm

CC1(C)CC(/C=C/c2ccc(-n3cccn3)cc2)=CC(=C(C#N)C#N)C1
emission maximum (in C1CCOC1): 529 nm
emission maximum (in CC#N): 538 nm
emission maximum (in CCO): 532 nm
emission maximum (in CCOC(C)=O): 526 nm
emission maximum (in ClCCl): 528 nm
emission maximum (in c1ccccc1): 511 nm

From the Deep4Chem optical property database
